For orientation: minimal effective dose means the lowest level tested that produced the effect sought. As usually defined, the LD50 is the dose at which mortality reaches 50%.

System in the first series: not listed separately
The series is described as follows: Anti-carrageenin edema action (oral, hind foot edema). The format is in vivo, Wister rats. Conditions: Rattus norvegicus, po, 3 h, minimum dose with significant inhibition of edema 3 hours after carrageenin injection; p.o. one hour before carrageenin. On the procedure:
Fasting Wister rats, male, 5-6 weeks in age, five in one group, were injected subcutaneously in the sole of the caudal foot with 1% lambda carrageenin (0.05 ml), and the increase in the volume of the foot was measured at alliquot times. Then the compound of the invention was suspended in 0.3% CMC and administered orally one hour before carrageenin injection. 0.3% CMC alone was administered as a control.
(The carrageenan paw model is a standard test of acute inflammation.)
Compound `COc1cc(OC)c(NC(=O)C2=C(C)N3CCN=C3S2)cc1Cl` [Compound 21] displayed a minimal effective dose of 100 mg/kg.

`CC1=C(C(=O)Nc2c(Cl)cc(Cl)cc2Cl)SC2=NCCN21` [Compound 19] gave a minimal effective dose of 100 mg/kg. The same measure, in the same setting: the same measure for `CC1=C(C(=O)Nc2cc(Cl)ccc2Cl)SC2=NCCN21` [Compound 7, 2-(2,5-dichlorophenylcarbamoyl)-3-methyl-5,6-dihydroimidazo [2,1-b] thiazole]: 100 mg/kg; for `CC1=C(C(=O)Nc2ccc(Cl)cc2Cl)SC2=NCCN21` [Compound 32]: 50 mg/kg. Still for that read-out and setting: under `CC1=C(C(=O)Nc2ccccc2)SC2=NCCN21` [Compound 1, 2-phenylcarbamoyl-3-methyl-5,6-dihydro-imidazo [2,1-b] thiazole] stands 100 mg/kg; under `CC1=C(C(=O)Nc2ccc(Br)cc2)SC2=NCCN21` [Compound 16], 50 mg/kg; under `CC1=C(C(=O)Nc2ccc(Cl)c(Cl)c2)SC2=NCCN21` [Compound 30], below 25 mg/kg. Still for that read-out and setting: under `COc1ccc(Cl)cc1NC(=O)C1=C(C)N2CCN=C2S1` [Compound 22] stands 100 mg/kg; under `CC1=C(C(=O)Nc2ccccc2)SC2=NCCN21.Cl` [Compound 2, 2-phenylcarbamoyl-3-methyl-5,6-dihydro-imidazo [2,1-b] thiazole hydrochloride], 50 mg/kg; under `CC1=C(C(=O)Nc2ccc(Cl)cc2C)SC2=NCCN21` [Compound 13], 50 mg/kg.

Compound `CC1=C(C(=O)Nc2ccc(Cl)cc2)SC2=NCCN21` [Compound 5] had a minimal effective dose of 50 mg/kg. Still for that read-out and setting: the same measure for `CCOc1ccc(NC(=O)C2=C(C)N3CCN=C3S2)cc1` [Compound 14]: 50 mg/kg; for `CC1=C(C(=O)Nc2ccccc2Cl)SC2=NCCN21.Cl` [Compound 4, 2-(2-chlorophenylcarbamoyl)-3-methyl-5,6-dihydroimidazo [2,1-b] thiazole hydrochloride]: below 25 mg/kg.

On to `CC1=C(C(=O)Nc2ccc(Cl)c(Cl)c2)SC2=NCCN21.Cl` [Compound 15, 2-(3,4-dichlorophenylcarbamoyl)-3-methyl-5,6-dihydroimidazo [2,1-b] thiazole hydrochloride], for which the minimal effective dose was below 25 mg/kg. `CCc1ccccc1NC(=O)C1=C(C)N2CCN=C2S1` [Compound 11] gave a minimal effective dose of 50 mg/kg.

`CC1=C(C(=O)Nc2ccc(C)cc2Cl)SC2=NCCN21` [Compound 10]: the minimal effective dose turned out to be 50 mg/kg.

Still in this series, the particulars now being: minimum dose with significant inhibition of edema 3 hours after carrageenin injection; p.o. one hour before carrageenin.
For the compound `CC1=C(C(=O)Nc2ccc(Cl)cc2)SC2=NCCN21` [Compound 6], the Minimum effective dose is reported as < 25 mg/kg, p.o.

System in another series: not listed separately
The series is described as follows: Acute toxicity, oral. Conditions: mouse, in vivo, mice, p.o.
For the compound `CC1=C(C(=O)Nc2ccc(Cl)c(Cl)c2)SC2=NCCN21.Cl` [Compound 15, 2-(3,4-dichlorophenylcarbamoyl)-3-methyl-5,6-dihydroimidazo [2,1-b] thiazole hydrochloride], the LD50 was above 4000 mg/kg.

System in the next series: not listed separately
The series is described as follows: Adjuvant arthritis (chronic inflammation), oral. Conditions: administered orally, rats. The format is in vivo.
For the compound `CC1=C(C(=O)Nc2ccc(Cl)c(Cl)c2)SC2=NCCN21.Cl` [Compound 15, 2-(3,4-dichlorophenylcarbamoyl)-3-methyl-5,6-dihydroimidazo [2,1-b] thiazole hydrochloride], the “inhibited adjuvant arthritis, at a dose of” value is 1 to 10 mg/kg.

System in the next series: not listed separately
As to the kind of experiment: Analgesic action, acetic acid stretching method, oral. The format is in vivo. The settings on record: administered orally in mice.
Turning to `CC1=C(C(=O)Nc2ccc(Cl)c(Cl)c2)SC2=NCCN21.Cl` [Compound 15, 2-(3,4-dichlorophenylcarbamoyl)-3-methyl-5,6-dihydroimidazo [2,1-b] thiazole hydrochloride], the “analgesic action, at a dose of” value is given as 25 mg/kg.

The subject of another series is bovine serum albumin.
Assay: not given
Conditions: known agents, stated "in general"; cited from earlier work.
On to `CC(C)(S)[C@@H](N)C(=O)O` [D-penicillamine], for which the “effect on heat denaturation of bovine serum albumin” value (shortened to “effect on heat denaturation”) was “do not inhibit the heat denaturation of bovine serum albumin but rather stimulate the protein heat denaturation”. As for gold sodium thiomalate, the “effect on heat denaturation” value is given as “do not inhibit the heat denaturation of bovine serum albumin but rather stimulate the protein heat denaturation”.

Turning to `c1ccc([C@H]2CN3CCSC3=N2)cc1` [levamisol], the “effect on heat denaturation” value is on record as “do not inhibit the heat denaturation of bovine serum albumin but rather stimulate the protein heat denaturation”. As to `Cn1cnc([N+](=O)[O-])c1Sc1ncnc2nc[nH]c12` [azathioprine], the “effect on heat denaturation” value is “do not inhibit the heat denaturation of bovine serum albumin but rather stimulate the protein heat denaturation”.

The values above are taken from US4629793A, “2,3-di-substituted-5,6-dihydroimidazo [2,1-b] thiazole, its salts, production thereof and anti-inflammatory agent containing the same” (Toyo Jozo Kabushiki Kaisha, priority 1981, dated 1986).
